Values after ≈ are worked out from the molar mass of the structure shown. Where two headings read alike, the source gives them in different places.
Key:
[1] = system: MRSA CCARM 3506; experiment: Antibacterial susceptibility, broth microdilution MIC; assay type: cell-based; conditions: Staphylococcus aureus, 24-h incubation at 37 °C
Protocol: (§1) Whole-cell antimicrobial activities were determined using a broth microdilution method described previously. Most of the test strains were grown to mid-log phase in Mueller–Hinton broth and diluted 1,000-fold in the same medium. Cells (10^5/mL) were dispensed at 0.2 mL/well in 96-well microtiter plates. Streptococcus pneumonia and Acinetobacter baumanii were grown in Todd–Hewitt medium and nutrient broth, respectively. […]. Cells were treated with 0.05% DMSO as a vehicle control. The MICs were determined in triplicate by serial two-fold dilutions of the test compounds. […] Bacterial growth was determined by measuring the absorption at 650 nm using a microtiter enzyme-linked immunosorbent assay (ELISA) reader (Molecular Devices Corporation, Sunnyvale, CA, USA).

[2] = system: E. coli KCTC 1682; experiment: as above; assay type: cell-based; conditions: Escherichia coli
Protocol: as §1

[3] = system: Klebsiella pneumoniae KCTC 22057; experiment: as above; assay type: cell-based; conditions: for MIC: KCTC22057, Klebsiella pneumoniae KCTC 22057, 24-h incubation at 37 °C; for growth inhibition of K. pneumonia: at 32 μg/mL
Protocol: as §1

[4] = system: Streptococcus pneumonia KCTC 5412; experiment: as above; assay type: cell-based; conditions: Streptococcus pneumoniae, KCTC5412, Todd–Hewitt medium, 24-h incubation at 37 °C
Protocol: as §1

[5] = system: MRSA CCARM 3167; experiment: as above; assay type: cell-based; conditions: Staphylococcus aureus, 24-h incubation at 37 °C
Protocol: as §1

[6] = system: QRSA CCARM 3519; experiment: as above; assay type: cell-based; conditions: Staphylococcus aureus
Protocol: as §1

[7] = system: Pseudomonas aeruginosa KCTC 2004; experiment: as above; assay type: cell-based; conditions: for MIC: KCTC2004, Pseudomonas aeruginosa KCTC 2004, 24-h incubation at 37 °C; for antibacterial activities against P. aeruginosa: in words
Protocol: as §1

[8] = system: Acinetobacter baumannii KCTC 2508; experiment: as above; assay type: cell-based; conditions: KCTC2508, nutrient broth, 24-h incubation at 37 °C
Protocol: as §1

[9] = system: E. coli CCARM 1356; experiment: as above; assay type: cell-based; conditions: Escherichia coli, CCARM1356, 24-h incubation at 37 °C
Protocol: as §1

[10] = system: Enterococcus faecalis KCTC 5191; experiment: as above; assay type: cell-based; conditions: KCTC5191, 24-h incubation at 37 °C
Protocol: as §1

[11] = system: QRSA CCARM 3505; experiment: as above; assay type: cell-based; conditions: Staphylococcus aureus
Protocol: as §1

[12] = system: Staphylococcus aureus RN 4220; experiment: as above; assay type: cell-based; conditions: RN4220, 24 h
Protocol: Whole-cell antimicrobial activities were determined using a broth microdilution method described previously. Most of the test strains were grown to mid-log phase in Mueller–Hinton broth and diluted 1,000-fold in the same medium. Cells (10^5/mL) were dispensed at 0.2 mL/well in 96-well microtiter plates. Streptococcus pneumonia and Acinetobacter baumanii were grown in Todd–Hewitt medium and nutrient broth, respectively. […] Cells were treated with 0.05% DMSO as a vehicle control. The MICs were determined in triplicate by serial two-fold dilutions of the test compounds. […] Bacterial growth was determined by measuring the absorption at 650 nm using a microtiter enzyme-linked immunosorbent assay (ELISA) reader (Molecular Devices Corporation, Sunnyvale, CA, USA).

[13] = target: T1, E. coli DNA gyrase (Escherichia coli, UniProt P0AES4+P0AES6); experiment: DNA gyrase supercoiling assay; assay type: biochemical; conditions: relaxed plasmid, 37 °C for 30 min, agarose gel band densities; read-out: IC50, inhibition of the supercoiling activity of E. coli DNA gyrase
T1 construct: purchased TopoGEN TG2001G
Protocol: The inhibitory activities of coralmycins on the supercoiling activity of DNA gyrase were investigated using a ‘Purified E. coli DNA Gyrase Drug Screening Kit’ (TopoGEN #TG2001G, Buena Vista, CO, USA). […] The reaction was terminated by the addition of 2 μL of 10% (w/v) SDS and 2 μL of 10× DNA gel loading dye (bromophenol blue). Then, 20 μL of chloroform:isoamyl alcohol (24:1 mixture) was added, and the mixture was vortexed and then centrifuged. The samples in the blue phase were run on 1% (w/v) agarose gel and were visualized using ethidium bromide. All reactions were performed in triplicate. To calculate the IC50 values, the band densities were measured using ImageJ (National Institutes of Health, Bethesda, Maryland, MD, USA).

[14] = KCTC1682, 24-h incubation at 37 °C, Table 6 and Table S1, read-out: MIC
[15] = KCTC1682, Table 7, read-out: MIC, antibacterial activity on E. coli KCTC 1682
[16] = CCARM3519, QRSA CCARM 3519, 24-h incubation at 37 °C, read-out: MIC
[17] = CCARM3505, QRSA CCARM 3505, 24-h incubation at 37 °C, read-out: MIC
[18] = KCTC1682, 24 h, Table 7, read-out: MIC, antibacterial activity on E. coli KCTC 1682

T1 sequence (P0AES4 whole entry, one chain of several): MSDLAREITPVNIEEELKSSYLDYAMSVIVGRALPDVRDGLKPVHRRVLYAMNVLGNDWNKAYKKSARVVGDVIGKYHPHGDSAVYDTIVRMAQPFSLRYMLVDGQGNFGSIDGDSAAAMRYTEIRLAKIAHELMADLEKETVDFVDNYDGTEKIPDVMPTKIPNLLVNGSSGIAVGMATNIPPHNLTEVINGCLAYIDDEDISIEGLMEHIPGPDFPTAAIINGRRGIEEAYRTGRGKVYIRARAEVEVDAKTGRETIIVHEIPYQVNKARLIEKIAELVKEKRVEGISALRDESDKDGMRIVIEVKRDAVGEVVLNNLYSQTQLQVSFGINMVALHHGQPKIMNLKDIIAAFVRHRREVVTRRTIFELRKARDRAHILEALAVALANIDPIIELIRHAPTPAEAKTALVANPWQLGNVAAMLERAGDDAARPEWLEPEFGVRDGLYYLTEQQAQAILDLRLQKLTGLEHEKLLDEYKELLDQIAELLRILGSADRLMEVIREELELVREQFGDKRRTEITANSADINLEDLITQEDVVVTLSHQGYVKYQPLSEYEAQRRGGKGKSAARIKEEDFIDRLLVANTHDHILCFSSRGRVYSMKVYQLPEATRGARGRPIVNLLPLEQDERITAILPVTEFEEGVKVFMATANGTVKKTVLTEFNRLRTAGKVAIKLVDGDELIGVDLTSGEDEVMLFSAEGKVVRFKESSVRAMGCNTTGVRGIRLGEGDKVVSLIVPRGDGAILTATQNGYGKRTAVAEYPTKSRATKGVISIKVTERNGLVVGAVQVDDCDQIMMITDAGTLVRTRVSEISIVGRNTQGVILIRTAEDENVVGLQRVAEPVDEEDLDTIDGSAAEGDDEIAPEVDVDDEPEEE

## CO[C@@H](C(N)=O)[C@H](NC(=O)c1ccc(NC(=O)c2ccc(N)cc2)cc1)C(=O)Nc1ccc(C(=O)Nc2ccc(C(=O)Nc3ccc(C(=O)O)cc3OC(C)C)c(O)c2OC(C)C)cc1 [Compound 2, Coralmycin D]
[1]
  MIC: 0.5 µg/mL (≈ 0.562 µM)
[2]; [14]
  MIC: 1 µg/mL (≈ 1.12 µM)
[2]; [15]
  MIC: 1 µg/mL (≈ 1.12 µM)
[3]
  MIC: > 32 µg/mL
  growth inhibition of K. pneumonia: did not inhibit the growth
[4]
  MIC: 2 µg/mL (≈ 2.25 µM)
[5]
  MIC: 0.5 µg/mL (≈ 0.562 µM)
[6]; [16]
  MIC: 1 µg/mL (≈ 1.12 µM)
[7]
  MIC: > 32 µg/mL
[7]; at 32 μg/mL
  growth inhibition of P. aeruginosa: did not inhibit the growth
[8]
  MIC: 4 µg/mL (≈ 4.49 µM)
[9]
  MIC: 1 µg/mL (≈ 1.12 µM)
[10]
  MIC: 1 µg/mL (≈ 1.12 µM)
[11]; [17]
  MIC: 1 µg/mL (≈ 1.12 µM)
[12]
  MIC: 0.25 µg/mL (≈ 0.281 µM)
[13]
  IC50: 510 nM

## COc1cc(C(=O)O)ccc1NC(=O)c1ccc(NC(=O)c2ccc(NC(=O)[C@@H](NC(=O)c3ccc(NC(=O)c4ccc([N+](=O)[O-])cc4)cc3)[C@@H](OC)C(N)=O)cc2)c(OC(C)C)c1O [Compound 8, cystobactamid 891-2]
[1]
  MIC: 0.125 µg/mL (≈ 0.14 µM)
[2]; [14]
  MIC: 0.25 µg/mL (≈ 0.28 µM)
[2]; [18]
  MIC: 0.25 µg/mL (≈ 0.28 µM)
[3]
  MIC: > 32 µg/mL
  growth inhibition of K. pneumonia: did not inhibit the growth
[4]
  MIC: 2 µg/mL (≈ 2.24 µM)
[5]
  MIC: 0.5 µg/mL (≈ 0.561 µM)
[6]; [16]
  MIC: 1 µg/mL (≈ 1.12 µM)
[7]
  MIC: 4 µg/mL (≈ 4.49 µM)
  antibacterial activities against P. aeruginosa: weak antibacterial activities
[8]
  MIC: 1 µg/mL (≈ 1.12 µM)
[9]
  MIC: 0.5 µg/mL (≈ 0.561 µM)
[10]
  MIC: 1 µg/mL (≈ 1.12 µM)
[11]; [17]
  MIC: 2 µg/mL (≈ 2.24 µM)
[12]
  MIC: 0.25 µg/mL (≈ 0.28 µM)
[13]
  IC50: 50 nM

## O=C(O)c1cn(C2CC2)c2cc(N3CCNCC3)c(F)cc2c1=O [Cip, Ciprofloxacin, reference compound]
[1]
  MIC: 2 µg/mL (≈ 6.04 µM)
[2]; [14]
  MIC: 0.06 µg/mL (≈ 0.181 µM)
[2]; [15]
  MIC: 0.06 µg/mL (≈ 0.181 µM)
[3]
  MIC: 0.015 µg/mL (≈ 0.0453 µM)
[4]
  MIC: 0.25 µg/mL (≈ 0.754 µM)
[6]; CCARM3519, 24 h
  MIC: 128 µg/mL (≈ 386 µM)
[7]
  MIC: 0.03 µg/mL (≈ 0.0905 µM)
[8]
  MIC: 0.25 µg/mL (≈ 0.754 µM)
[9]
  MIC: 64 µg/mL (≈ 193 µM)
[10]
  MIC: 0.5 µg/mL (≈ 1.51 µM)
[11]; CCARM3505, 24 h
  MIC: 128 µg/mL (≈ 386 µM)

## CO[C@H](C(=O)O)[C@H](NC(=O)c1ccc(NC(=O)c2ccc([N+](=O)[O-])cc2)cc1)C(=O)Nc1ccc(C(=O)Nc2ccc(C(=O)Nc3ccc(C(=O)O)cc3OC(C)C)c(O)c2OC(C)C)cc1 [Compound 13, coralmycin B, reference compound]
[1]
  MIC: 1 µg/mL (≈ 1.09 µM)
[2]; [14]
  MIC: 4 µg/mL (≈ 4.34 µM)
[2]; [15]
  MIC: 4 µg/mL (≈ 4.34 µM)
[3]
  MIC: > 16 µg/mL
[4]
  MIC: > 16 µg/mL
[5]
  MIC: 1 µg/mL (≈ 1.09 µM)
[7]
  MIC: > 16 µg/mL
[8]
  MIC: 4 µg/mL (≈ 4.34 µM)
[9]
  MIC: 16 µg/mL (≈ 17.4 µM)
[10]
  MIC: 4 µg/mL (≈ 4.34 µM)
[12]
  MIC: 2 µg/mL (≈ 2.17 µM)
[13]
  IC50: 1070 nM

## CCOc1c(NC(=O)c2ccc(N)cc2)ccc(C(=O)Nc2ccc(C(=O)O)cc2OC(C)C)c1O [Compound 6, Coralmycin H]
[1]
  MIC: > 32 µg/mL
[2]; [14]
  MIC: > 32 µg/mL
[3]
  MIC: > 32 µg/mL
[4]
  MIC: > 32 µg/mL
[5]
  MIC: > 32 µg/mL
[6]; [16]
  MIC: > 32 µg/mL
[7]
  MIC: > 32 µg/mL
[8]
  MIC: > 32 µg/mL
[9]
  MIC: > 32 µg/mL
[10]
  MIC: > 32 µg/mL
[11]; [17]
  MIC: > 32 µg/mL
[12]
  MIC: > 32 µg/mL

## CCOc1cc(C(=O)O)ccc1NC(=O)c1ccc(NC(=O)c2ccc(N)cc2)c(OC(C)C)c1O [Compound 7, Coralmycin I]
[1]
  MIC: > 32 µg/mL
[2]; [14]
  MIC: > 32 µg/mL
[3]
  MIC: > 32 µg/mL
[4]
  MIC: > 32 µg/mL
[5]
  MIC: > 32 µg/mL
[6]; [16]
  MIC: > 32 µg/mL
[7]
  MIC: > 32 µg/mL
[8]
  MIC: > 32 µg/mL
[9]
  MIC: > 32 µg/mL
[10]
  MIC: > 32 µg/mL
[11]; [17]
  MIC: > 32 µg/mL
[12]
  MIC: > 32 µg/mL

## CO[C@@H](C(N)=O)[C@H](NC(=O)c1ccc(NC(=O)c2ccc([N+](=O)[O-])cc2)cc1)C(=O)Nc1ccc(C(=O)Nc2ccc(C(=O)Nc3ccc(C(=O)O)cc3OC(C)C)c(O)c2OC(C)C)cc1 [Compound 11, cystobactamid 919-2, reference compound]
[1]
  MIC: 0.25 µg/mL (≈ 0.272 µM)
[2]; [14]
  MIC: 1 µg/mL (≈ 1.09 µM)
[2]; [15]
  MIC: 1 µg/mL (≈ 1.09 µM)
[3]
  MIC: 4 µg/mL (≈ 4.35 µM)
[4]
  MIC: 1 µg/mL (≈ 1.09 µM)
[5]
  MIC: 0.25 µg/mL (≈ 0.272 µM)
[6]; [16]
  MIC: 1 µg/mL (≈ 1.09 µM)
[7]
  MIC: 4 µg/mL (≈ 4.35 µM)
[8]
  MIC: 2 µg/mL (≈ 2.17 µM)
[9]
  MIC: 2 µg/mL (≈ 2.17 µM)
[10]
  MIC: 0.25 µg/mL (≈ 0.272 µM)
[11]; [17]
  MIC: 1 µg/mL (≈ 1.09 µM)
[12]
  MIC: 0.125 µg/mL (≈ 0.136 µM)
[13]
  IC50: 950 nM

## COc1cc(C(=O)O)ccc1NC(=O)c1ccc(NC(=O)c2ccc(N)cc2)c(OC(C)C)c1O [Compound 5, Coralmycin G]
[1]
  MIC: > 32 µg/mL
[2]; [14]
  MIC: > 32 µg/mL
[3]
  MIC: > 32 µg/mL
[4]
  MIC: > 32 µg/mL
[5]
  MIC: > 32 µg/mL
[6]; [16]
  MIC: > 32 µg/mL
[7]
  MIC: > 32 µg/mL
[8]
  MIC: > 32 µg/mL
[9]
  MIC: > 32 µg/mL
[10]
  MIC: > 32 µg/mL
[11]; [17]
  MIC: > 32 µg/mL
[12]
  MIC: > 32 µg/mL

## CCOc1cc(C(=O)O)ccc1NC(=O)c1ccc(NC(=O)c2ccc(NC(=O)[C@@H](NC(=O)c3ccc(NC(=O)c4ccc([N+](=O)[O-])cc4)cc3)[C@@H](OC)C(N)=O)cc2)c(OC(C)C)c1O [Compound 9, cystobactamid 905-2]
[1]
  MIC: 0.25 µg/mL (≈ 0.276 µM)
[2]; [14]
  MIC: 0.5 µg/mL (≈ 0.552 µM)
[2]; [18]
  MIC: 0.25 µg/mL (≈ 0.276 µM)
[3]
  MIC: > 32 µg/mL
  growth inhibition of K. pneumonia: did not inhibit the growth
[4]
  MIC: 1 µg/mL (≈ 1.1 µM)
[5]
  MIC: 0.25 µg/mL (≈ 0.276 µM)
[6]; [16]
  MIC: 1 µg/mL (≈ 1.1 µM)
[7]
  MIC: 8 µg/mL (≈ 8.83 µM)
  antibacterial activities against P. aeruginosa: weak antibacterial activities
[8]
  MIC: 0.5 µg/mL (≈ 0.552 µM)
[9]
  MIC: 1 µg/mL (≈ 1.1 µM)
[10]
  MIC: 0.5 µg/mL (≈ 0.552 µM)
[11]; [17]
  MIC: 2 µg/mL (≈ 2.21 µM)
[12]
  MIC: 0.125 µg/mL (≈ 0.138 µM)
[13]
  IC50: 130 nM

Reference: article PMC6479757, “Coralmycin Derivatives with Potent Anti-Gram Negative Activity Produced by the Myxobacteria Corallococcus coralloides M23” (Molecules, 2019)
